This is an account of results in patent US7601752B2, “Pyrrolidine derivatives” (Hoffmann-La Roche Inc., priority 2005, dated 2009).

The experiment deals with T1, human factor Xa (Homo sapiens, UniProt P00742).
T1 construct: purchased Enzyme Research Laboratories
The experiment can be described thus: Chromogenic peptide substrate (S-2222) assay, inhibition of coagulation factor Xa. The conditions noted are these: apparent dissociation constant by Cheng-Prusoff from IC50; human factor Xa 3 nM, substrate S-2222, HNPT buffer pH 7.8, room temperature. It is filed as biochemical. As for the experimental part:
Factor Xa activity was measured spectrophotometrically in microtiter plates in a final volume of 150 μl using the following conditions: Inhibition of human factor Xa (Enzyme Research Laboratories) was tested at an enzyme concentration of 3 nM using the chromogenic substrate S-2222 (Chromogenix AB, Mölndal, Sweden) at […]. The reaction kinetics of the enzyme and the substrate were linear with both time and the enzyme concentration. The inhibitors were dissolved in DMSO and tested at various concentrations up to 100 μM. The inhibitors were diluted using HNPT buffer consisting of HEPES 100 mM, NaCl 140 mM, PEG 6000 0.1% and Tween 80 0.02%, pH 7.8. The cleavage of S-2222 by human factor Xa was followed at 405 nm for 5 minutes at room temperature. The velocity of the reaction was determined by the autoreader from the slope of the linear regression fit to 7 time points (1 minute). The initial velocity for each inhibitor concentration was determined by the slope of at least 4 time points in the linear phase by a linear regression fit […]. Apparent dissociation constants Ki were calculated according to Cheng and Prusoff [Cheng, Y. C.; Prusoff, W. H. Relationship between the inhibition constant (Ki) and the concentration of the inhibitor that causes 50 percent inhibition (IC50) of an enzyme reaction. Biochem. Pharmacol. 1973, 22, 3099-3108.] based on the IC50 and the respective Km, determined previously (Ki=IC50/(1+S/Km)). The Km for the substrate used was determined under the conditions of the test with at least 5 substrate concentrations ranging from 0.5 to 15 times Km. [Lottenberg R, Hall J A, Blinder M, Binder E P, Jackson C M., The action of thrombin on peptide p-nitroanilide substrates. Substrate selectivity and examination of hydrolysis under different reaction conditions. Biochim Biophys Acta. 1983 Feb. 15; 742(3):539-57]. According to Eadie [Eadie G. S. The inhibition of cholinesterase by physostigmine and prostigmine. J. Biol. Chem. 1942, 146, 85-93.], the Km for S-2222 amounted to 613 μM.

T1 sequence (P00742 235-488 limits assumed): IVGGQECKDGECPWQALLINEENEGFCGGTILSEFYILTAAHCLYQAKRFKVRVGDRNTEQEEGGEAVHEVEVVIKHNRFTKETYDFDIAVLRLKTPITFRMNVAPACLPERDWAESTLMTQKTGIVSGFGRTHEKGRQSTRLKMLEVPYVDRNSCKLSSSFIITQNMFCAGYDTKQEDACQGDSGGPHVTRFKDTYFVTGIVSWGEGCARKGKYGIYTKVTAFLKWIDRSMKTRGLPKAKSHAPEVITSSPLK
T1 sequence (P00742 41-179 partner limits assumed): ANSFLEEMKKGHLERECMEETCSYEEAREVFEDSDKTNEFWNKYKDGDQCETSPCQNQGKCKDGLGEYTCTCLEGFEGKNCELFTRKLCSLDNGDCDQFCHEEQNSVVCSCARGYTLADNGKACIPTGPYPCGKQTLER

For `O=C(N[C@@H]1CN[C@H](C(=O)Nc2ccc(-n3ccccc3=O)cc2F)C1)c1ccc(Cl)s1` [Example 2, (2S,4S)-4-[(5-Chloro-thiophene-2-carbonyl)-amino]-pyrrolidine-2-carboxylic acid[2-fluoro-4-(2-oxo-2H-pyridin-1-yl)-phenyl]-amide trifluoro-acetate], the Ki is 0.023 µM.
Take `CC(C)(C)OC(=O)N1C[C@@H](NC(=O)c2ccc(Cl)s2)C[C@H]1C(=O)Nc1ccc(-n2ccncc2=O)cc1F` [Example 21, (2S,4S)-4-[(5-Chloro-thiophene-2-carbonyl)-amino]-2-[2-fluoro-4-(2-oxo-2H-pyrazin-1-yl)-phenylcarbamoyl]-pyrrolidine-1-carboxylic acid tert-butyl ester]: the Ki was 0.065 µM.
Under `O=C(N[C@H]1CC(C(=O)Nc2ccc(-n3ccccc3=O)cc2F)N(CCC(F)(F)F)C1)c1ccc(Cl)s1` (mixture of isomers) [Example 14, (S)-4-[(5-Chloro-thiophene-2-carbonyl)-amino]-1-(3,3,3-trifluoro-propyl)-pyrrolidine-2-carboxylic acid[2-fluoro-4-(2-oxo-2H-pyridin-1-yl)-phenyl]-amide] stands 0.042 µM; under `N#CCN1C[C@@H](NC(=O)c2ccc(Cl)s2)C[C@H]1C(=O)Nc1ccc(-n2ccccc2=O)cc1F` [Example 6, (2S,4S)-4-[(5-Chloro-thiophene-2-carbonyl)-amino]-1-cyanomethyl-pyrrolidine-2-carboxylic acid[2-fluoro-4-(2-oxo-2H-pyridin-1-yl)-phenyl]-amide], 0.046 µM.
